Experiment [1] addresses T1, GLP1R (Homo sapiens, UniProt P43220). Briefly: β-Arrestin-mediated GLP1R internalization assay (PathHunter U2OS cells). The following applies: averaged Bmax where applicable, Percentage of Control GLP-1 (7-37), top 10 μM, 180 min. The class given is cell-based. Also on record: host or cells: PathHunter engineered U2OS cells. In short, it runs like this:
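PathHunter U2OS cells co-express untagged GLP1R, EA-tagged β-arrestin and an endosome-localized PK tag, so internalization gives β-galactosidase complementation. Agonist (top final concentration 10 μM) applied for 180 min at 37 °C, then chemiluminescence read after 60 min detection. EC50 from 4-parameter logistic fits.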
Target sequence in this assay (P43220 24-463): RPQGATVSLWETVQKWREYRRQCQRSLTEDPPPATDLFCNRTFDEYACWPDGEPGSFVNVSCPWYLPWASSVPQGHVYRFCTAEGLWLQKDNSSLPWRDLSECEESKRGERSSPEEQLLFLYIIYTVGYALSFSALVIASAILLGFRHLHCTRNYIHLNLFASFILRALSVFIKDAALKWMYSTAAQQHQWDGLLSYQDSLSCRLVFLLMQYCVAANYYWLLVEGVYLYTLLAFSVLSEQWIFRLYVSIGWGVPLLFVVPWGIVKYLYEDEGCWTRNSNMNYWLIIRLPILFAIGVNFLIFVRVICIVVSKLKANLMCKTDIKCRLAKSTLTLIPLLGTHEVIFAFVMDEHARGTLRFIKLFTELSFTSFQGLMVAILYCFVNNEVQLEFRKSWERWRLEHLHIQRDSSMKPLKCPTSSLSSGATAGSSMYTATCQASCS
Target sequence in this assay (P32121 whole entry partner): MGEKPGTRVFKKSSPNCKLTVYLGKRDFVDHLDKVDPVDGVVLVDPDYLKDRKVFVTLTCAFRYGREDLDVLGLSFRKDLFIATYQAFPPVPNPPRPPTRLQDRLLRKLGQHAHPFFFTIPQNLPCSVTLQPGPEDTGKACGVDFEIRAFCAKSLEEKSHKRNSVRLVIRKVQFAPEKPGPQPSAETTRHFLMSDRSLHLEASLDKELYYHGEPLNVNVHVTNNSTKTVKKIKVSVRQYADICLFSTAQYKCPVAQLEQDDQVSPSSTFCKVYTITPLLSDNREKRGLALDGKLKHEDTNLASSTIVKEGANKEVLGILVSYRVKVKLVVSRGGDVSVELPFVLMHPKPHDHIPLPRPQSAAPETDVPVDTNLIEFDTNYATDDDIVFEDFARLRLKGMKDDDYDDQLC

Experiment [2] concerns the target T1, GLP1R. Briefly: GLP1R cAMP assay (HTRF), HEK293/GLP-1R/CRE/Luc, Clone 4. (Changes in cAMP serve as a functional read-out for many G protein-coupled receptors.)
Target sequence in this assay (P43220 24-463): as the sequence (P43220 24-463) above
The target of experiment [3] is T1, GLP1R. Briefly: cAMP assay in CHO cells stably expressing hGLP-1R. The class given is cell-based. Also on record: expressed in transfected cells; host or cells: CHO cells stably transfected. The following applies: CHO cells stably expressing hGLP-1R (Table 2), read-out: CHO cAMP stable EC50. Here is the method: GLP-1R-mediated agonist activity was determined with a cell-based functional assay utilizing an HTRF (Homogeneous Time-Resolved Fluorescence) cAMP detection kit (cAMP Dynamic 2 Assay Kit; CisBio cat #62AM4PEC) that measures cAMP levels in the cell. The method is a competitive immunoassay between native cAMP produced by the cells and exogenous cAMP labeled with the dye d2. The tracer binding is visualized by a mAb anti-cAMP labeled with Cryptate. The specific signal (i.e., energy transfer) is inversely proportional to the concentration of cAMP in either standard or experimental sample.
Following the 30 minute incubation, 5 μL of labeled d2 cAMP and 5 μL of anti-cAMP antibody (both diluted 1:20 in cell lysis buffer; as described in the manufacturer's assay protocol) were added to each well of the assay plate. […] Raw data were converted to nM cAMP by interpolation from a cAMP standard curve (as described in the manufacturer's assay protocol) and the percent effect was determined relative to a saturating concentration of the full agonist GLP-17-37 (10 nM) included on each plate. EC50 determinations were made from agonist dose-response curves analyzed with a curve fitting program using a 4-parameter logistic dose response equation. […]
Target sequence in this assay (P43220 24-463): as above

The target in experiment [4] is T1, GLP1R. Set-up: Emax: dose or concentration left out as unconfirmed. The following applies: CHO-K1, […], read-out: β-arrestin recruitment Bmax (%). On the technique in general: Recruitment of arrestin is a read-out of receptor activation apart from second messengers.
Target sequence in this assay (P43220 24-463): as above
Target sequence in this assay (P32121 whole entry partner): as the sequence (P32121 whole entry partner) above
Experimental: Frozen cells were quickly thawed and 10 mL of cell plating medium (provided by the kit) was added to thawed cells. Cells were stored in a 37° C. incubator under 5% CO2 and kept for approximately 48 hours until ready to run the assay.
Reference and test compounds were dissolved in 100% DMSO. […] 5 μL of this solution was added to 20 μL cell medium in assay plate for a final top concentration of 10 μM. Plates were then incubated at 37° C. under 5% CO2 for 90 min.
Following 90 min incubation, detection reagents were made up by combining 1 part Galacton Star Substrate with 5 parts Emerald II™ Solution, and 19 parts of PathHunter Cell Assay Buffer, respectively. 12.5 μl detection reagent was added to each well. The plates were then incubated at room temperature in dark for 60 min. Plates were then read on Envision for 0.1 sec/well.
Cells were plated at a density of 1000 or 2000 cells/20 μL/well. Frozen cells were quickly thawed and added to 10 mL of cell plating medium. Cells were stored in a 37 degree incubator under 5% CO2 and left for approximately 48 hours until ready to run the assay
Prepare 10× concentration of an agonist in serum free DMEM, and add all solutions into the compound plate. 2.5 μL of this solution was added to 20 μL cell medium in assay plate for a final top concentration of 10 μM. Plates were incubated at 37° C. under 5% CO2 for 30 min. An additional 2.5 μL of Buffer was added to the entire plate for agonist mode and incubated at 37° C. for another 90 min.
Following 90 min incubation, detection reagents were made up as described. 12.5 μL was added to all wells. The plates were then incubated at room temperature in dark for 60 min. Plates were then read on Envision for 0.1 sec/well.
Data analysis: GraphPad Prism 6 was used for establishment of progression curve. EC50s or IC50s were determined by 4-parameter logistic dose response equation.

Bounds are passed on as bounds.

A word on the EC50: it is the concentration at which the effect is half-maximal. As for `N#Cc1ccc(COc2cccc(-c3cc(F)c(Cc4nc5ccc(C(=O)O)nc5n4C[C@@H]4CCO4)cc3F)n2)c(F)c1` [Compound 292, (S)-2-(4-(6-((4-cyano-2-fluorobenzyl)oxy)pyridin-2-yl)-2,5-difluorobenzyl)-3-(oxetan-2-ylmethyl)-3H-imidazo[4,5-b]pyridine-5-carboxylic acid], the “β-arrestin internalization Bmax (POC)” value on GLP1R [1] came to 29.6 POC. For the same molecule, the EC50 on GLP1R [2] and on GLP1R [3] was below 15 nM each time. Further, the Emax on GLP1R [4] was 42.2 ± 2.68%.
As for `N#Cc1cnc(COc2cccc(-c3cc(F)c(Cc4nc5ccc(C(=O)O)nc5n4C[C@@H]4CCO4)cc3F)n2)c(F)c1` [Compound 278, (S)-2-(4-(6-((5-cyano-3-fluoropyridin-2-yl)methoxy)pyridin-2-yl)-2,5-difluorobenzyl)-3-(oxetan-2-ylmethyl)-3H-imidazo[4,5-b]pyridine-5-carboxylic acid], the “β-arrestin internalization Bmax (POC)” value on GLP1R [1] is given as 36.5 POC. Besides, the EC50 at GLP1R [2] and at GLP1R [3] was below 15 nM throughout. Besides, the Emax on GLP1R [4] is 36.2 ± 5.56%.
On to `N#Cc1ccc(COc2nc(-c3ccc(Cc4nc5ccc(C(=O)O)c(F)c5n4C[C@@H]4CCO4)c(F)c3)ncc2F)c(F)c1` [Compound 312, (S)-2-(4-(4-((4-cyano-2-fluorobenzyl)oxy)-5-fluoropyrimidin-2-yl)-2-fluorobenzyl)-7-fluoro-1-(oxetan-2-ylmethyl)-1H-benzo[d]imidazole-6-carboxylic acid], for which the “β-arrestin internalization Bmax (POC)” value on GLP1R [1] worked out at 45.2 POC. Moreover, the EC50 at GLP1R [2] and on GLP1R [3] was below 15 nM in each case. In addition, the Emax at GLP1R [4] is 33.4 ± 2.13%.

The values are drawn from patent US10954221B2, “GLP-1R agonists and uses thereof” (QILU REGOR THERAPEUTICS INC., priority 2019, dated 2021).
